This passage reports IC50 results from paper PMC12344693, “Human Milk Oligosaccharides Multivalently Presented on Defined Synthetic Neo-Glycoproteins Are Nanomolar Ligands of Tandem-Repeat Galectins” (Biomacromolecules, 2025).

Where “and” joins values, the source holds several entries; their conditions need not be identical. Identical values can stand only once. Like-named read-outs stand apart in the source and are kept apart here.

For one assay, the target named is T1, Gal-9 (Homo sapiens, UniProt O00182, A222P/DEL149-219).
T1 construct: Full-length recombinant human galectins (Gal-1, Gal-3, Gal-4, Gal-8, and Gal-9) for ELISA assays; made in house; host or cells: E. coli Rosetta 2(DE3)pLysS
T1 sequence (O00182 with tags, fused parts or gaps DEL149-219/A222P): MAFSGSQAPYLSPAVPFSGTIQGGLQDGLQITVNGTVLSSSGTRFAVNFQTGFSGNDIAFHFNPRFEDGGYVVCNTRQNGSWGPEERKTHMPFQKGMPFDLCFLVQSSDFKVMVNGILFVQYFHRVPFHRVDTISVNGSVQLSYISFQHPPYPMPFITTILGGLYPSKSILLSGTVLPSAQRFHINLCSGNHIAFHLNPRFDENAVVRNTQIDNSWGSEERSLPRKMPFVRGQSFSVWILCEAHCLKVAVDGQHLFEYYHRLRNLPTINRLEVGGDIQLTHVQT
Description: competitive ELISA, inhibition of galectin binding to immobilized asialofetuin. The note with it: competitive ELISA vs immobilized ASF; 0.5 μM Gal-9; at least quadruplicate. Background: In an ELISA, binding on a coated surface is turned into a signal by an enzyme label.

In assay [1] the target is T2, Gal-4 (Homo sapiens, UniProt P56470).
T2 construct: Full-length recombinant human galectins (Gal-1, Gal-3, Gal-4, Gal-8, and Gal-9) for ELISA assays; made in house; host or cells: E. coli Rosetta 2(DE3)pLysS
T2 sequence (P56470 1-323): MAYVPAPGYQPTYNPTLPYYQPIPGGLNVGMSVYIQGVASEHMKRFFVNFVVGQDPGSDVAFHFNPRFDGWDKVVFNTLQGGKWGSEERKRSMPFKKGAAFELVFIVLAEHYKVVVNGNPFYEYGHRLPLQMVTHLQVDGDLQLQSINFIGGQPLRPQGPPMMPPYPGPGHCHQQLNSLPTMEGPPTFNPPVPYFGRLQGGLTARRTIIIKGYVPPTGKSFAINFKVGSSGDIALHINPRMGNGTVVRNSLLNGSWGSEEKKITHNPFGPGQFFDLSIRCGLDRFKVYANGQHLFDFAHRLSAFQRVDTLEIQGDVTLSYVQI
The description is as above. As to conditions: competitive ELISA vs immobilized ASF; 2.5 μM Gal-4; at least quadruplicate.
Description: (§1) The inhibitory potential of the prepared glycan library and the respective multivalent neo-glycoproteins with Gal-1, -3, -4, -8, and -9 was evaluated using a competitive ELISA assay as described by Vašíček et al. Asialofetuin (ASF; 0.1 μM in PBS, 50 μL/well) was immobilized onto microtiter plates (Nunc Immuno Sorb, ThermoFisher Scientific, USA) overnight at 4 °C. Wells were subsequently washed three times with PBS containing 0.05%, v/v, Tween-20 (250 μL/wash). Each assay step was followed by a washing step to ensure the thorough removal of unbound reagents. Blocking was performed using 2%, w/v, BSA in PBS (250 μL/well) for 1 h at room temperature. Serial dilutions of the inhibitors prepared in EPBS buffer (PBS containing 2 mM EDTA) were incubated with a constant concentration of galectin (2.5 μM Gal-1, Gal-3, and Gal-4; 0.5 μM Gal-8 and Gal-9) for 2 h. […] Residual galectin bound to ASF was detected using the anti-His-tag antibody conjugated to horseradish peroxidase (Santa Cruz Biotechnology, 1:999 dilution in PBS). Detection was achieved by adding 50 μL of TMB One substrate solution (Kem-En-Tech, Denmark), which developed a blue color that turned yellow upon the addition of 50 μL of 3 M HCl. Absorbance at 450 nm was measured using a microplate reader (Sunrise, Tecan Group Ltd., Switzerland) reflecting the amount of galectin bound to the wells. Half-maximal inhibitory concentration (IC50) values were calculated by nonlinear regression (dose–response inhibition with variable slope) of sigmoidal curves using GraphPad Prism version 8.4.3 (GraphPad Software, USA).
(§2) Serially diluted ligands and NGPs were incubated with individual galectin species in the wells coated with asialofetuin (ASF). The remaining galectin bound to the immobilized ASF was detected using an anti-His6 antibody.

A further assay concerns the target Gal-1 (Homo sapiens, UniProt P09382, C3S). Described as above.
The target in another assay is T3, Gal-8 (Homo sapiens, UniProt O00214).
T3 construct: Full-length recombinant human galectins (Gal-1, Gal-3, Gal-4, Gal-8, and Gal-9) for ELISA assays; made in house; host or cells: E. coli Rosetta 2(DE3)pLysS
T3 sequence (O00214 1-317): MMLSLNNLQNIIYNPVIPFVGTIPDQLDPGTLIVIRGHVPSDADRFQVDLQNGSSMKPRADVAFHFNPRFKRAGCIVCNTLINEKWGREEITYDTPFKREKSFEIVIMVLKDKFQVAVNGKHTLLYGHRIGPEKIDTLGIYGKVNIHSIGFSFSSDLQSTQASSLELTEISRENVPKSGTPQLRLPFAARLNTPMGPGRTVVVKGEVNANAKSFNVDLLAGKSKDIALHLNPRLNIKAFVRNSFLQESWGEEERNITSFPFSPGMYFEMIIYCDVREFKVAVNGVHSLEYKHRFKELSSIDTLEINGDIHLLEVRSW
Described as above. The note with it: competitive ELISA vs immobilized ASF; 0.5 μM Gal-8; at least quadruplicate.

For the next assay, the target named is Gal-3 (Homo sapiens, UniProt P17931). Described as above.
Gal-3, sequence (P17931 whole entry): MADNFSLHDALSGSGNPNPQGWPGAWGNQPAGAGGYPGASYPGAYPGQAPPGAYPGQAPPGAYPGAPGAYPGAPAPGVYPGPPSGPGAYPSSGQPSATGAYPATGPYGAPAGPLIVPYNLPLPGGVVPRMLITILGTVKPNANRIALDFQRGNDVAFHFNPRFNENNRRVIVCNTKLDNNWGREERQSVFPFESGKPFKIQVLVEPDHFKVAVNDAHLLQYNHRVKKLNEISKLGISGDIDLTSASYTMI
The target of assay [2] is T2, Gal-4. Set-up: method as in previously published by us. As to conditions: competitive ELISA vs immobilized ASF; footnote b; ref previously published by us; cited from earlier work.

Gal-1, sequence (P09382 whole entry C3S): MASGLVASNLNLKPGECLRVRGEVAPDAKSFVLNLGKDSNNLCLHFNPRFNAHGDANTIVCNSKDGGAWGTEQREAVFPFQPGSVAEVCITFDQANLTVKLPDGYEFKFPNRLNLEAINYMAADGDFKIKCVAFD
Description for Gal-1: as §1, §2
Description for Gal-3: as §1, §2
Description for Gal-8: as §1, §2
Description for Gal-9: as §1, §2

For the molecule `CC(=O)N[C@H]1[C@H](O[C@H]2[C@@H](O)[C@@H](CO)O[C@@H](O[C@H]3[C@H](O)[C@@H](O)[C@H](NC(=S)NCCNC(=O)OC(C)(C)C)O[C@@H]3CO)[C@@H]2O)O[C@H](CO)[C@@H](O[C@@H]2O[C@H](CO)[C@H](O)[C@H](O)[C@H]2NC(C)=O)[C@@H]1O` [Compound 5, (tert-Butoxycarbonylamino)ethylthioureidyl 2-acetamido-2-deoxy-β-D-galactopyranosyl-(1→4)-2-acetamido-2-deoxy-β-D-glucopyranosyl-(1→3)-β-D-galactopyranosyl-(1→4)-2-β-D-glucopyranoside], the IC50 – broadly, the concentration that inhibits the measured activity by half – at Gal-9 came to 326 ± 26 µM; on Gal-4 [1] it was 1620 ± 260 µM; at Gal-1, 435 ± 102 µM; on Gal-8 it was 75 ± 9 µM; at Gal-3, 2.2 ± 1.3 µM.

In the case of `CC(=O)N[C@@H]1[C@@H](O)[C@H](O[C@@H]2O[C@H](CO)[C@H](O)[C@H](O[C@@H]3O[C@H](CO)[C@@H](O)[C@H](O[C@@H]4O[C@H](CO)[C@H](O)[C@H](O)[C@H]4O)[C@H]3NC(C)=O)[C@H]2O)[C@@H](CO)O[C@H]1NC(=S)NCCNC(=O)OC(C)(C)C` [Compound 9, (tert-Butoxycarbonylamino)ethylthioureidyl β-D-galactopyranosyl-(1→3)-2-acetamido-2-deoxy-β-D-glucopyranosyl-(1→3)-β-D-galactopyranosyl-(1→4)-2-acetamido-2-deoxy-β-D-glucopyranoside], the IC50 on Gal-9 is > 5000 µM; at Gal-4 [1], 2380 ± 670 µM; on Gal-1, > 500 µM; at Gal-8 it was > 5000 µM; at Gal-3 (read-out: IC50 Gal-3, Table S9, competitive ELISA vs immobilized ASF, […] Gal-3, unit inferred), 27 ± 4 µM.

For `CC(=O)N[C@H]1[C@H](O[C@H]2[C@@H](O)[C@@H](CO)O[C@@H](O[C@H]3[C@H](O)[C@@H](O)[C@H](NC(=S)NCCNC(=O)OC(C)(C)C)O[C@@H]3CO)[C@@H]2O)O[C@H](CO)[C@@H](O[C@@H]2O[C@H](CO)[C@H](O)[C@H](O)[C@H]2O)[C@@H]1O` [Compound 4, (tert-Butoxycarbonylamino)ethylthioureidyl β-D-galactopyranosyl-(1→4)-2-acetamido-2-deoxy-β-D-glucopyranosyl-(1→3)-β-D-galactopyranosyl-(1→4)-β-D-glucopyranoside], the IC50 is 170 µM and 168 µM at Gal-9; 436 ± 41 µM at Gal-1; 130 ± 30 µM at Gal-8; 7.3 ± 1.6 µM at Gal-3; 620 ± 100 µM at Gal-4 [2].

Take `CC(=O)N[C@@H]1[C@@H](O)[C@H](O[C@@H]2O[C@H](CO)[C@H](O)[C@H](O[C@@H]3O[C@H](CO)[C@@H](O[C@@H]4O[C@H](CO)[C@H](O)[C@H](O)[C@H]4O)[C@H](O)[C@H]3NC(C)=O)[C@H]2O)[C@@H](CO)O[C@H]1NC(=S)NCCNC(=O)OC(C)(C)C` [Compound 10, (tert-Butoxycarbonylamino)ethylthioureidyl β-D-galactopyranosyl-(1→4)-2-acetamido-2-deoxy-β-D-glucopyranosyl-(1→3)-β-D-galactopyranosyl-(1→4)-2-acetamido-2-deoxy-β-D-glucopyranoside]: the IC50 on Gal-9 worked out at 52 ± 23 µM; on Gal-4 [1], 2390 ± 490 µM; on Gal-1, 106 ± 7 µM; on Gal-8 it was 406 ± 46 µM; at Gal-3 it was 12 ± 1 µM.

With `CC(=O)N[C@@H]1[C@@H](O)[C@H](O[C@@H]2O[C@H](CO)[C@H](O)[C@H](O)[C@H]2O)[C@@H](CO)O[C@H]1NC(=S)NCCNC(=O)OC(C)(C)C` [Compound 7, Galβ4GlcNAc-tBoc], the IC50 at Gal-9 was determined as 2840 ± 650 µM; at Gal-4 [1] it was 8630 ± 530 µM; at Gal-1, 79 ± 9 µM; at Gal-8 it was 18700 µM; on Gal-3, 47 ± 6 µM.

On to `CC(C)(C)OC(=O)NCCNC(=S)N[C@@H]1O[C@H](CO)[C@@H](O[C@@H]2O[C@H](CO)[C@H](O)[C@H](O)[C@H]2O)[C@H](O)[C@H]1O` [Compound 1, (tert-butoxycarbonylamino)ethylthioureidyl β-D-galactopyranosyl-(1→4)-β-D-glucopyranoside], for which the IC50 at Gal-9 is 2180 ± 670 µM; on Gal-1 it was 286 ± 23 µM; at Gal-8 it was 2870 ± 470 µM; at Gal-3, 136 ± 18 µM; at Gal-4 [2], 2520 ± 180 µM.

Take `CC(=O)N[C@@H]1[C@@H](O)[C@H](O[C@@H]2O[C@H](CO)[C@H](O)[C@H](O[C@@H]3O[C@H](CO)[C@@H](O[C@@H]4O[C@H](CO)[C@H](O)[C@H](O)[C@H]4NC(C)=O)[C@H](O)[C@H]3NC(C)=O)[C@H]2O)[C@@H](CO)O[C@H]1NC(=S)NCCNC(=O)OC(C)(C)C` [Compound 11, (tert-Butoxycarbonylamino)ethylthioureidyl 2-acetamido-2-deoxy-β-D-galactopyranosyl-(1→4)-2-acetamido-2-deoxy-β-D-glucopyranosyl-(1→3)-β-D-galactopyranosyl-(1→4)-2-acetamido-2-deoxy-β-D-glucopyranoside]: the IC50 at Gal-9 amounted to 260 ± 75 µM; on Gal-4 [1], 2010 ± 1000 µM; at Gal-1, 98 ± 22 µM; on Gal-8 it was 270 ± 85 µM; on Gal-3 it was 2.7 ± 2.4 µM.

Consider `CC(=O)N[C@H]1[C@H](O[C@H]2[C@@H](O)[C@@H](CO)O[C@@H](O[C@H]3[C@H](O)[C@@H](O)[C@H](NC(=S)NCCNC(=O)OC(C)(C)C)O[C@@H]3CO)[C@@H]2O)O[C@H](CO)[C@@H](O)[C@@H]1O[C@@H]1O[C@H](CO)[C@H](O)[C@H](O)[C@H]1O` [Compound 3, (tert-Butoxycarbonylamino)ethylthioureidyl β-D-galactopyranosyl-(1→3)-2-acetamido-2-deoxy-β-D-glucopyranosyl-(1→3)-β-D-galactopyranosyl-(1→4)-β-D-glucopyranoside], for which the IC50 on Gal-9 was 230 ± 43 µM; on Gal-4 [1], 108 ± 16 µM; at Gal-1 it was > 500 µM; at Gal-8, 820 ± 140 µM; on Gal-3, 15.2 ± 1 µM.
